Tests used:
[1] = molecular target: T1, variant petunia EPSP synthase with glycine (101) to alanine and glycine (144) to asparagine substitutions (Petunia hybrida, UniProt P11043, G173A/G216N); assay: EPSP synthase kinetic constants (Ki glyphosate, Km PEP); type: biochemical
T1 construct: GGT codon for glycine (144) in the mature petunia EPSP synthase
Description: (§1) Kinetic constants (appKm PEP and appKi glyphosate) were determined for EPSP synthase as described below. Substrate kinetic parameters were determined at pH 7.0 in 50 mM HEPES (N-[2-hydroxyethyl]piperazine-N'-[2-ethanesulfonic acid]) buffer in the presence of 2 mM S3P and varying amounts of ^14 C-PEP (10 μM-400 μM), for 2.0 minutes at 25° C. Reactions were quenched with 100 mM Na Acetate in ethanol, pH 4.5, centrifuged and analyzed for product EPSP formation by HPLC with flow radioactivity detection. HPLC conditions were 0.35 MKPi, pH 6.5, on a Synchropak AX100 column at 1.0 ml/min.

[2] = molecular target: T2, pMON8186 encoded petunia EPSP synthase variant (glycine (101) to alanine and glycine (144) to aspartic acid) (Petunia hybrida, UniProt P11043, G173A/G216D); assay: EPSP synthase kinetic constants (appKi glyphosate, appKm PEP); type: biochemical
T2 construct: GGT codon for glycine (144) in the mature petunia EPSP synthase; made in house; host or cells: E. coli SR481
T2 sequence (P11043 73-516 G173A/G216D): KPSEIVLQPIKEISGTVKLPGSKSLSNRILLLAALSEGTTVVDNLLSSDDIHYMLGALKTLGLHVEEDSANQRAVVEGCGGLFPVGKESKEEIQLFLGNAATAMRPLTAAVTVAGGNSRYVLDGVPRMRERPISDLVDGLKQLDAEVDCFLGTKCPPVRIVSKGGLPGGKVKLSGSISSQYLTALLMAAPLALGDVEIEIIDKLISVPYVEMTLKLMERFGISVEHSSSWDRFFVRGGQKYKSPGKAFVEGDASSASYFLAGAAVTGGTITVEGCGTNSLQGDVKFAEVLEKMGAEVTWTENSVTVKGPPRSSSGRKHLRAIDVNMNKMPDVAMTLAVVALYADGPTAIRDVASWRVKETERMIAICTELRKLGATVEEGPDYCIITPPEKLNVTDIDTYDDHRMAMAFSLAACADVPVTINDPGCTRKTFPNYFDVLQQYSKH
Description: The balance of the #215 preculture (~750 μl) was used to inoculate 2 ml of MOPS medium containing 50 μg/ml carbenicillin and was shaken overnight at 37° C. to reach saturation. Plasmid DNA was isolated from an aliquot of the saturated culture using an alkaline lysis procedure. The plasmid was designated pMON8186. An aliquot of the pMON8186 plasmid was used to transform the E. coli host SR481 (described above) and reselected on MOPS medium containing 10 mM glyphosate and 50 μg/ml carbenicillin. A single glyphosate resistant colony of pMON8186 was picked off the selection plate and used to inoculate 3 ml of 2XYT bacterial medium containing 50 μg/ml carbenicillin. The culture was then aerated on rotating wheel at 37° C. until saturated, then it was used to inoculate a larger 500 ml culture. The large culture was grown to saturation by shaking it overnight at 37° C. in a water bath. The bacterial cells were lysed and the extracts were assayed for EPSPS activity.
Specifically, the bacterial cell paste was washed twice with 0.9% saline, suspended in buffer (100 mM Tris-HCl, 5 mM benzamidine HCl) and passed twice through the French Pressure Cell at 1000 psi. The cell extract was separated from the cells by centrifuging at 15,000 x gravity for 10 mins. at 5° C. It was desalted using Sephadex G-50 (Pharmacia, Piscataway, N.J.). The desalted extract was assayed for EPSP synthase activity as follows:
To an assay mix (40 μl) containing shikimate-3-phosphate (2 mM), ^14 C-phosphoenolpyruvate (1 mM, 1.2 mCi/mmol), ammonium molybdate (0.1 mM), potassium fluoride (5 mM) in 50 mM HEPES-KOH, pH 7, was added the extract and incubated at 25° C. for 2 mins. The reaction was quenched by the addition of 50 μl of 50 μl of 90% ethanol/0.1M acetic acid, pH 4.5. […] The radioactivity of the eluent was monitored using a Radiomatic Flo-One Beta Instrument. […] The EPSP synthase activity was determined by measurement of the conversion of ^14 C-PEP to ^14 C-EPSP synthase, both of which are resolved under the above conditions of chromatography. The protein content of the extract was determined by the method of Bradford (Biorad Labs, Calif.). The specific activity of the extract is expressed as nanomoles of EPSP synthase formed/min/mg protein.
as §1, with “HPLC conditions were 0.35 MKPi, pH 6.5, on a Synchropak AX100 column at 1.0 ml/min.” left out

[3] = molecular target: T3, petunia EPSP synthase glycine (101) to alanine variant (Petunia hybrida, UniProt P11043, G173A); assay: as above; type: biochemical; settings: relative to wild type
T3 construct: made in house; host or cells: E. coli
T3 sequence (P11043 73-516 G173A): as the sequence (P11043 73-516 G173A/G216D) above, with D144G counted along it
Description: To an assay mix (40 μl) containing shikimate-3-phosphate (2 mM), ^14 C-phosphoenolpyruvate (1 mM, 1.2 mCi/mmol), ammonium molybdate (0.1 mM), potassium fluoride (5 mM) in 50 mM HEPES-KOH, pH 7, was added the extract and incubated at 25° C. for 2 mins. The reaction was quenched by the addition of 50 μl of 50 μl of 90% ethanol/0.1M acetic acid, pH 4.5. 70 μl of the reaction mixture was loaded on a SynchroPak AX100 HPLC column (0.4×25 cm) and the column was eluted with 0.5M potassium phosphate, pH 5.5 at 1 ml/min. The radioactivity of the eluent was monitored using a Radiomatic Flo-One Beta Instrument. (Radiomatics, Fla.). The EPSP synthase activity was determined by measurement of the conversion of ^14 C-PEP to ^14 C-EPSP synthase, both of which are resolved under the above conditions of chromatography. The protein content of the extract was determined by the method of Bradford (Biorad Labs, Calif.). The specific activity of the extract is expressed as nanomoles of EPSP synthase formed/min/mg protein.
as §1

[4] = substrate: C=C(OP(=O)(O)O)C(=O)O; assay: purified protein, by the assay type; settings: 25.0 °C

T1 sequence (P11043 73-516 G173A/G216N): as the sequence (P11043 73-516 G173A/G216D) above, with D144N counted along it

Q: What does the source list for C=C(OP(=O)(O)O)C(=O)O [PEP, phosphoenolpyruvate]?
A: Km for PEP [1]: 91 µM; Km for PEP [2]: 40 µM; Km for PEP relative to the glycine (101) to alanine variant [2]: more than four fold lower

Q: With O=C(O)C1=C[C@@H](OP(=O)(O)O)[C@@H](O)[C@H](O)C1 [S3P, shikimate-3-phosphate] as the molecule, how does the “binding constant for shikimate-3-phosphate (S3P)” value [3] read?
A: not affected

B1: wild type petunia EPSP synthase (Petunia x hybrida) (protein)
chain: KPSEIVLQPIKEISGTVKLPGSKSLSNRILLLAALSEGTTVVDNLLSSDDIHYMLGALKTLGLHVEEDSANQRAVVEGCGGLFPVGKESKEEIQLFLGNAGTAMRPLTAAVTVAGGNSRYVLDGVPRMRERPISDLVDGLKQLGAEVDCFLGTKCPPVRIVSKGGLPGGKVKLSGSISSQYLTALLMAAPLALGDVEIEIIDKLISVPYVEMTLKLMERFGISVEHSSSWDRFFVRGGQKYKSPGKAFVEGDASSASYFLAGAAVTGGTITVEGCGTNSLQGDVKFAEVLEKMGAEVTWTENSVTVKGPPRSSSGRKHLRAIDVNMNKMPDVAMTLAVVALYADGPTAIRDVASWRVKETERMIAICTELRKLGATVEEGPDYCIITPPEKLNVTDIDTYDDHRMAMAFSLAACADVPVTINDPGCTRKTFPNYFDVLQQYSKH
Q: With B1 as the molecule, how does the Km [4] read?
A: 5.2 µM

From patent US5310667A (priority 1989, dated 1994)
